One compound from patent publication US10550130B2, “Benzo-thiazolo-imidazole compounds and uses thereof” (KING SAUD UNIVERSITY, priority 2015, dated 2020) can be followed below.

Usually IC50 stands for the concentration needed to halve the response being measured. As usually defined, the ED50 is the dose at which the effect has come halfway, by size or by number of responders.

The subject of data set [1] is normal cells MCF-10 A, HSFN1 (human foreskin cells) and BM4 (bone marrow derived mesenchymal stem cells). Briefly: Annexin V binding by flow cytometry (apoptosis) in normal cells. The settings on record: 20 μM, 48 h. The data set is classed as cell-based. The protocol: (§1) It is known that loss of phospholipid asymmetry of the plasma membrane is an early event of apoptosis. The annexin V binds to negatively charged phospholipids, like phosphatidylserine. During apoptosis, the cells react to annexin V once chromatin condenses but before the plasma membrane loses its ability to exclude propidium iodide (PI).
(§2) Annexin-V staining was performed by using Vybrant Apoptosis Assay Kit #2 (Molecular Probes) following the manufacturer's recommendations. Annexin-V stained cells were analyzed by flow cytometry, measuring the fluorescence emission between 515 nm to 545 nm.
(§3) To evaluate the selective-apoptotic effect of the compound in cancer cells but not normal cells, the cancer cell lines SKBR3, MDA-MB-468, and normal cells MCF-10 A, HSFN1 (human foreskin cells) and BM4 (bone marrow derived mesenchymal stem cells) were used. […] Upon treatment of cells with 20 μM for 48 h, cells were stained with Annexin-V and PI and binding of Annexin-V and PI to the cells was determined by flow cytometry.

The next data set relates to SKBR3. Briefly: Cell proliferation by 3H-thymidine uptake assay. The data set is classed as cell-based. The settings on record: Homo sapiens, SK-BR-3, 72 h, read-out: IC50, growth inhibition (3H-thymidine uptake). As for the experimental part: (§4) In vitro antitumor activity of the compound was assessed by ^3H-thymidine uptake. The cells were treated and they were about 60% confluent. Cells were seeded at 4×10^3 cells per well in a 96 well plate in DMEM containing 10% FBS for 24 h followed by treatment with control media (0.1% DMSO) or media containing different concentration of the compound incubated for 72 h at 37° C. in 5% CO2. Cells were labelled by addition of ^3H-thymidine (Amersham, Chiltern Hills, London, UK) at 1 μCi/well for 18 h before harvesting. ^3H-thymidine uptake was measured using a 1450 Micro Beta PLUS liquid scintillation counter (Wallac, Waltham, Mass., USA).
(§5) In another experiment, the in vitro antitumor activity of the compound was assessed by a 3H-thymidine uptake experiment. To this end, cells of the tumor cell lines MCF-7, SKBR3 and MDA-MB-468 were seeded at 4×10^3 cells per well in a 96 well plate in DMEM containing 10% FBS for 24 h followed by treatment with control media (0.1% DMSO) or media containing different concentration of the compound (5 μM, 10 μM, 20 μM, 40 μM or 80 μM final concentration of KSA-101696) and incubated for 72 h at 37° C. in 5% CO2. At about 60% confluency, cells were labelled by addition of 3H-thymidine (Amersham, Chiltern Hills, London, UK) at 1 μCi/well for 18 h before harvesting. 3H-thymidine uptake was measured using a 1450 Micro Beta PLUS liquid scintillation counter (Wallac, Waltham, Mass., USA).

Data set [2] relates to MDA-MB-468. Briefly: Cell proliferation by 3H-thymidine uptake assay. The data set is classed as cell-based. Particulars: Homo sapiens, 72 h, read-out: IC50, growth inhibition (3H-thymidine uptake). As for the experimental part:
as §4, §5

In the next data set the test system is MCF-7. Briefly: Cell proliferation by 3H-thymidine uptake assay. The data set is classed as cell-based. The settings on record: Homo sapiens, MCF7, 72 h, read-out: IC50, growth inhibition (3H-thymidine uptake). The protocol:
as §4, §5

Data set [3] can be described thus: Apparent toxicity (body weight, general signs) in tumor-bearing mice. The data set is classed as in vivo. The settings on record: 200 mg/kg intraperitoneal, three doses. As for the experimental part:
(§6) Nude mice (Jackson Laboratories, Bar Harbor, Me., USA) were injected with 4×10^6 cells of MDA-MB-468 in the mammary pad and tumor size was measured weekly using a caliper. When the tumor reached approximately 100 mm^3 diameter the mice were divided into a control group and a group treated with KSA-101696 200 mg/kg via intraperitoneal injection (three cycles every four days). Apparent toxicity as determined by body weight loss is recorded by measuring total body weight. Breeding, care and sacrifice of the animals were carried out in accordance with the protocols approved by the Animal Care and Use Committee of the King Faisal Specialist Hospital and Research Centre.
(§7) Because of the observed selective cytotoxic effect of compound KSA-101696 against cancer cells and the tolerance of normal cells and normal stem cells in vitro, a high dose of compound KSA-101696 (200 mg/kg) was used on mice.

A further data set relates to MDA-MB-468 tumors. Briefly: Antitumor activity in mice. The data set is classed as in vivo, Nude mice. The protocol:
as §6, §7

The test system of the next data set is Numb. Briefly: Immunofluorescence of Numb in MDA-MB-231 breast cancer cells. The data set is classed as cell-based. The settings on record: MDA-MB-231 cells; 0.01, 0.1, 1 or 10 μM. The protocol:
MDA-MB-231 breast cancer cells were treated either with vehicle (control) or with 0.01 μM, 0.1 μM, 1 μM or 10 μM final concentration of doxorubicin, taxotere or KSA-101696. Then, the cells were cytospun to glass slides by centrifugation at 800 rpm for 3 min. Slides were then air-dried overnight and 4% formaldehyde fixed for 10 min. For staining, the cell membrane was permeabilized with 0.5% triton-X (Sigma) followed by overnight incubation with primary antibodies (anti-Numb, Abcam) and (anti-intracellular Notch-1, Cell Signalling) at 1:100. Cells were washed and stained with AlexaFluor goat anti-rabbit IgG 488 (Invitrogenat) 1:400 for 30 minutes. 300 nM DAPI (Invitrogen, Carlsbad, Calif., USA) was added for 10 minutes to counterstain the nuclei. Slides were mounted and immunofluorescence was visualized using BD Pathway 855 microscope.
Numb exerts its functional role on cell fate decisions by antagonizing Notch signaling activities. The molecular mechanisms underlying this relationship appear to rely on the ubiquitination of the membrane bound Notch-1 receptor and the subsequent degradation of its NICD (Notch intracellular domain) following receptor activation.

For data set [4], the system named is MDA-MB-468. Briefly: Annexin V binding by flow cytometry (apoptosis). The data set is classed as cell-based. As for the experimental part:
as §1, §2, §3
In a next step, it was investigated whether there was a correlation between Numb protein expression and sensitivity of a cell line to the apoptotic effects of KSA-101696. Apoptotic cells were determined by Annexin-V staining as described in Example 1.
On the technique in general: In flow cytometry, cells or beads pass a laser one at a time.

For another data set, the system named is MCF-7 cells. Briefly: Flow cytometric analysis of cellular DNA content (cell cycle distribution). The data set is classed as cell-based. Particulars: 20 μM, 8, 16, 12 and 48 h. As for the experimental part:
2×10^6 cells were fixed in 1 ml ethanol (70%) for 60 min at room temperature. Harvested cells were resuspended in 1 ml Na citrate (50 mM) containing 250 μg RNase A and incubated at 50° C. for 60 min. Next, cells were resuspended in the same buffer containing 4 μg propidium iodide (PI) and incubated for 30 min before being analyzed by flow cytometry (Becton Dickinson, San. Jose, Calif., USA). The percentage of cells in various cell cycle phases was determined by using Cell Quest Pro software (Becton Dickinson).
To gain insight into the mechanism by which anti-proliferation was achieved, the effect on cell cycle distribution was investigated by fluorescence-activated cell sorting (FACS) analysis. […] This was also accompanied by a compensatory decrease in G1 phase cells. Based on histograms the compound blocks the cells on early stage of mitosis, thereby inhibiting the transition of the cells to complete mitosis.

Consider `COc1ccc(-c2csc3nc4ccccc4n23)cc1` [KSA-101696, 3-(4-methoxyphenyl)benzo[4,5]imidazo[2,1-b]thiazole], for which, in data set [1], the “apoptosis (Annexin-V and PI) in normal cells” value was “little apoptotic effect”. Also, the figures for the IC50 in the data set with SKBR3, with MDA-MB-468 [2] and in the data set on MCF-7 were 7.5 µM, approximately 2.5 µM and approximately 5 µM, respectively. Also, the “signs of general toxicity” value in [3] was “no convulsions, CNS stimulation, diarrhea, increased urination, miosis or mydriasis”. The weight loss entry in [3] is listed as “no measurable weight loss”. Further, the “reduction (shrinking) of tumor volume” value in the data set with MDA-MB-468 tumors (200 mg/kg intraperitoneal, three doses, mice bearing MDA-MB-468 tumors) was 70%. The ED50 in the data set on MDA-MB-468 tumors (Mus musculus, MDA-MB-468, ip, intraperitoneal, read-out: ED50 (dose that shrinks the tumor volume by 50% at the end of treatment)) was determined as 50 mg/kg. For the same compound, the “Numb expression (immunofluorescence microscopy)” value with Numb was “induced Numb”. Moreover, the “apoptosis (Annexin-V) in relation to Numb expression” value in the data set with MDA-MB-468 [4] (MDA-MB-468, low levels of Numb expression, FIG. 9B) is listed as “increased apoptosis”. Besides, the “apoptosis (Annexin-V and PI)” value in the data set on MDA-MB-468 [4] (MDA-MB-468, 20 μM, 48 h) is recorded as “induced apoptosis”. Besides, the cell cycle distribution entry with MCF-7 cells is “accumulation of cells in G2/M phase in a time-dependent manner”.
